In publication PMC12119275 (Frontiers in Molecular Biosciences, 2025):

Assays:
A549 cells [1] = assay: A549 cell phospholipidosis (NBD-PE staining assay); settings: 24 h, dose-range; amiodarone positive control
[2] = system: B.1.351 (beta) SARS-CoV-2pp; assay: microbe, parasite or virus in culture; format: cell-based; settings: Severe acute respiratory syndrome coronavirus 2, HEK293, 48 h, read-out: EC50 B.1.351 (beta) SARS-CoV-2pp
[3] = Pharmacokinetics analysis in mice; settings: C57 Bl/6, mouse, plasma, po
[4] = system: B.1.1.7 (alpha) SARS-CoV-2pp; assay: microbe, parasite or virus in culture; format: cell-based; settings: Severe acute respiratory syndrome coronavirus 2, HEK293, 48 h, read-out: EC50 B.1.1.7 (alpha) SARS-CoV-2pp
[5] = system: B.1.1.28 (gamma) SARS-CoV-2pp; assay: microbe, parasite or virus in culture; format: cell-based; settings: Severe acute respiratory syndrome coronavirus 2, HEK293, 48 h, read-out: EC50 B.1.1.28 (gamma) SARS-CoV-2pp
SARS-CoV-2pp = assay: microbe, parasite or virus in culture; format: cell-based; settings: for EC50: Severe acute respiratory syndrome coronavirus 2, HEK293, 48 h, read-out: EC50 SARS-CoV-2pp; for IC50: Severe acute respiratory syndrome coronavirus 2, HEK293, read-out: IC50, inhibition of SARS-CoV-2pp infection of HEK-293-hACE2 cells
[6] = system: SARS CoV-2 2019-nCoV/USA-WA1/2020; assay: Efficacy in SARS-CoV2 infected K18-hACE2 mice (lung viral load by plaque assay); format: in vivo; settings: 2 h before and 24 h after infection, 3 days post-infection; for effect on SARS-CoV2 viral load in lung homogenates: 100 mg/kg p.o. at 24 h before
SARS-CoV-1pp = assay: microbe, parasite or virus in culture; format: cell-based; settings: Severe acute respiratory syndrome coronavirus, HEK293, 48 h, read-out: EC50 SARS-CoV-1pp
SARS-CoV-2 [7] = assay: microbe, parasite or virus in culture; format: cell-based; settings: Severe acute respiratory syndrome coronavirus 2, A549, read-out: IC50, inhibition of SARS-CoV-2 infection of A549-hACE2 cells
[8] = system: B.1.617.2 (delta) SARS-CoV-2pp; assay: microbe, parasite or virus in culture; format: cell-based; settings: Severe acute respiratory syndrome coronavirus 2, HEK293, 48 h, read-out: EC50 B.1.617.2 (delta) SARS-CoV-2pp
[9] = system: B.1.1.529 (omicron) SARS-CoV-2pp; assay: microbe, parasite or virus in culture; format: cell-based; settings: Severe acute respiratory syndrome coronavirus 2, HEK293, 48 h, read-out: EC50 B.1.1.529 (omicron) SARS-CoV-2pp
A549 cells [10] = assay: A549 cell vacuolization analysis (phase contrast); settings: 5 µM, 24 h
COVID-19 = settings: Phase 2 clinical trial; ref BerGenBio, 2022; cited from earlier work
BA.2 SARS-CoV-2pp = assay: microbe, parasite or virus in culture; format: cell-based; settings: Severe acute respiratory syndrome coronavirus 2, HEK293, 48 h, read-out: EC50 BA.2 SARS-CoV-2pp
SARS-CoV-2 [11] = settings: ref Dittmar et al., 2021; cited from earlier work
MERSpp = assay: microbe, parasite or virus in culture; format: cell-based, MERS; settings: Middle East respiratory syndrome-related coronavirus, HeLa, 48 h, read-out: EC50 MERSpp
AXL kinase = target: T1, AXL kinase (Homo sapiens, UniProt P30530); assay: AXL kinase assay (Reaction Biology Hot Spot, 33P-ATP); format: biochemical
T1 construct: purchased Reaction Biology
T1 sequence (P30530 26-894): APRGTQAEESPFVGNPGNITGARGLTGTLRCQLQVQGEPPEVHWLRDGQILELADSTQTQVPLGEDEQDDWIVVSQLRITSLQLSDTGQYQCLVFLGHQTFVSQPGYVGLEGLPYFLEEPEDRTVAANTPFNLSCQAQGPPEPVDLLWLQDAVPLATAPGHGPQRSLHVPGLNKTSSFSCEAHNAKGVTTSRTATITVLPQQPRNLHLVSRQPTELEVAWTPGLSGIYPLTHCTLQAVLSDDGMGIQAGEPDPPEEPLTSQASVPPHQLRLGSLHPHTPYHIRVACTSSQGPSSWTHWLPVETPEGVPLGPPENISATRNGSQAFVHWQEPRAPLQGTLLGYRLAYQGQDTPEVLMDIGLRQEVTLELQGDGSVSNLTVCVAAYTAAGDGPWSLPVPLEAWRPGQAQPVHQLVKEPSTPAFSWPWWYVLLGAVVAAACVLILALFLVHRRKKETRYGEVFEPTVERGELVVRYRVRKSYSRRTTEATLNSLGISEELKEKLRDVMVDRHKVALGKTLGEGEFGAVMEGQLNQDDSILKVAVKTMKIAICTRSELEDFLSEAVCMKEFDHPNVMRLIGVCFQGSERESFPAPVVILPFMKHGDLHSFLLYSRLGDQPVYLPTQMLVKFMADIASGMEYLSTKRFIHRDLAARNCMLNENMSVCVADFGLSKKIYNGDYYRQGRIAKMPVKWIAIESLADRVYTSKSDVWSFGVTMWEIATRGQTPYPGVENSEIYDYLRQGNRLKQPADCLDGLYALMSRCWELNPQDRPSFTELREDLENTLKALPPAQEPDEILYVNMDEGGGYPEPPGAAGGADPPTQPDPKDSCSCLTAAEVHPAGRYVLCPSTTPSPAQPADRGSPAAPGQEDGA

Structure (SMILES) | phospholipidosis in A549 cells (NBD-PE staining) (A549 cells [1]) | EC50 [2] | AUC ([3]; 100 mg/kg) | Cmax ([3]; 100 mg/kg) | Tmax ([3]; 100 mg/kg) | EC50 [4] | EC50 [5] | EC50 (SARS-CoV-2pp) | IC50 (SARS-CoV-2pp) | effect on SARS-CoV2 viral load in lung homogenates [6] | EC50 (SARS-CoV-1pp) | IC50 (SARS-CoV-2 [7]) | EC50 [8] | EC50 [9] | vacuolization in human lung A549 cells (A549 cells [10]) | EC50 (BA.2 SARS-CoV-2pp) | EC50 (MERSpp) | other results
Nc1nc(Nc2ccc3c(c2)CC[C@@H](N2CCCC2)CC3)nn1-c1cc2c(nn1)-c1ccccc1CCC2 [Bemcentinib, bemcentinib, reference compound] | neither compound demonstrated phospholipidosis | 390 ± 140 nM | 33300 ng·h/mL | 1760 ng/mL | 13 h | 430 ± 180 nM | 420 ± 120 nM | 5680 ± 3760 nM | 5700 nM | failed to reduce SARS-CoV2 viral load | 910 ± 10 nM | 70 nM | 380 ± 140 nM | 210 ± 10 nM | induced significant vacuolization | 160 ± 30 nM | 90 ± 10 nM | clinical response in patients hospitalized with COVID-19 (COVID-19): improved clinical response and key secondary endpoints; inhibition of SARS-CoV-2 infection of human lung Calu-3 cells (SARS-CoV-2 [11]): inhibits SARS-CoV-2 infection of human lung Calu-3 cells
c1ccc2c(c1)CCCc1cc(-c3nnc(Nc4ccc5c(c4)CCC(N4CCCC4)CC5)o3)nnc1-2 (centres unmarked) [WYS-633] | neither compound demonstrated phospholipidosis | 1250 ± 50 nM | 7920 ng·h/mL | 950 ng/mL | 2 h | 1230 ± 580 nM | 1660 ± 710 nM | 2520 ± 2260 nM | 2520 nM | failed to reduce SARS-CoV2 viral load | 750 ± 70 nM | 610 nM | 1050 ± 370 nM | 1030 ± 650 nM | did not | 680 ± 290 nM | 310 ± 120 nM | activity against AXL kinase (in words) (AXL kinase): inactive
FC(F)(F)c1nc(Nc2ccc3c(c2)CCC(N2CCCC2)CC3)n(-c2cc3c(nn2)-c2ccccc2CCC3)n1 (centres unmarked) [WYS-694] |  | 180 ± 110 nM |  |  |  | 120 ± 70 nM | 160 ± 150 nM | 80 ± 30 nM |  |  | 820 ± 1020 nM |  | 130 ± 90 nM | 130 ± 120 nM |  | 450 ± 440 nM |  | AUC ([3]; 30 mg/kg): 10700 ng·h/mL; Cmax ([3]; 30 mg/kg): 556 ng/mL; Tmax ([3]; 30 mg/kg): 24 h; fold more potent than WYS-633 in inhibiting viral entry (SARS-CoV-2pp): 12.5 fold; reduction of SARS-CoV-2 viral load in lung homogenates ([6]; 30 mg/kg p.o. at 24 h before): more than 4 fold
